Patent publication US9730906B2, “α-derivatives of cis-monounsaturated fatty acids for use as medicines” (UNIVERSITAT DE LES ILLES BALEARS, priority 2008, dated 2017)

How the values were obtained:
[1] = test system: A549 cells of human lung adenocarcinoma; assay: Prevention of tumour development in nude mice injected with A549 cells; type: in vivo; conditions: 400 mg/kg per day oral, 2 weeks before and one month after A549 injection, compared with fatty acids not of Formula I, p<0.05
Source text: FIG. 2. Preventative effect of various fatty acids against tumour development. […] Animals received treatment before injection of tumour cells and the treatment was subsequently maintained. Animals of the control group were not treated and the volume of their tumours was taken as the reference value (100%).
To determine whether the fatty acids of the invention have applications in the prevention of the development of tumour processes, an animal cancer model was used. This model consisted of immune-deprived animals ([Crl:Nu(Ico)-Fox 1] nude mice in which non-microcytic human lung cancer cells were injected (5×10^6 A549 cells per animal). The control group (infected with cancer cells but untreated) started to develop tumours that were visible after a few days. The sizes of the tumours were measured for the first time at 10 days after implanting the tumour and measurements continued for up to 31 days after the implantation with a digital calliper. The volume of the tumours was calculated with the following equation: v=w^2×l/2 where v is the volume of the tumour, w is its width and l is the length. Preventative treatments against development of the cancer were applied. To carry out these treatments, 400 mg/kg were administered per day for 2 weeks before the injection of tumour cells. This treatment was continued for one month after the implantation of the tumour cells and the volume of the tumours in the animals was measured. Each experimental group was composed of 8 animals. Oral administration of α-derivatives of cis-monounsaturated fatty acids prevented cancer development (A549 cells of human lung adenocarcinoma) (FIG. 2). […] Therefore it was concluded that the introduction of a double bond in the cis configuration in the structure of the fatty acid is a critical factor in the prevention and treatment by fatty acids of cancer development.

[2] = Rat obesity induced by cafeteria diet, preventative pre-treatment (Table 3); type: in vivo, Wistar Kyoto rats; conditions: 300 mg/kg oral, after two weeks on cafeteria diet; obese control 308 ± 17, lean control 280 ± 16; * lower than obese controls, ‡ indistinguishable
How it was run: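 Groups of 6 female Wistar Kyoto rats (250-300 g) received oral pre-treatment with 300 mg/kg fatty acid or vehicle during 2 weeks on standard diet. Dosing continued for two further weeks on cafeteria diet, with lean and obese vehicle controls. Body-weight gain was the read-out.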

[3] = biological target: T1, cyclooxygenases-1 (COX-1) (Homo sapiens, UniProt P23219); assay: COX-1 activity in U937 differentiated monocytes (Cayman COX-1 inhibitor screening system); type: cell-based; conditions: 250 μM, 6 hours; compared with fatty acids not of Formula I, p<0.05
T1 construct: endogenous in cells; host or cells: U937 differentiated monocytes
T1 sequence (P23219 24-599): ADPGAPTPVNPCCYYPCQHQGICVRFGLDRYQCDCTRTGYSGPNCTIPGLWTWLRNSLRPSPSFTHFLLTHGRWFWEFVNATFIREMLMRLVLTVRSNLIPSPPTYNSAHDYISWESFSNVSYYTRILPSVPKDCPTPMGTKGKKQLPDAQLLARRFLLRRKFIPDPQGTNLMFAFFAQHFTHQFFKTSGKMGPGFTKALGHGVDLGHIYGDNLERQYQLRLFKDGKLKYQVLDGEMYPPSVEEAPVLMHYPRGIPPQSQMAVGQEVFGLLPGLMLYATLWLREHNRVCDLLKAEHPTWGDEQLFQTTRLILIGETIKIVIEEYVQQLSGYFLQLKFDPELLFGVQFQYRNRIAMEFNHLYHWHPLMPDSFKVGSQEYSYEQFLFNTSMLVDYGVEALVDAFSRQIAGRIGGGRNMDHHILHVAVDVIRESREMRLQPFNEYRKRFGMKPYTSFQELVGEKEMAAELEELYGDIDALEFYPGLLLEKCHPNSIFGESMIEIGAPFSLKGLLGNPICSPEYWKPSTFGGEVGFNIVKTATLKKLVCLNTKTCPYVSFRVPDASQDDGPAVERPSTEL
Experimental: FIG. 19A. Effect of various fatty acids in the inhibition of the activity of cyclooxygenases-1 (COX-1) (Cayman COX-1 inhibitor screening system). […] Cell cultures (U937 differentiated monocytes) were treated with the fatty acids of the invention (250 μM, 6 hours).
(§1) In an additional study on the release of various proinflammatory cytokines (IL-1b, IL-6, IL-8, IL-10) and TNF-α in U937 monocytes stimulated with bacterial lipopolysaccharide (LPS), a marked reduction in the levels of these molecules was observed after treatments with OHHD at a concentration of 250 μM and 72 h incubation (Table 4). The effect of the α-derivatives of cis-monounsaturated fatty acids (250 μM, 6 h) on the activity and expression of the COX-1 and COX-2 cyclooxygenases was investigated in the same system.

cyclooxygenase-2 (COX-2) = assay: Cellular concentration of COX-2 in U937 differentiated monocytes (immunoblot); type: cell-based, human; conditions: 250 μM, 6 hours; compared with fatty acids not of Formula I, p<0.05
Experimental: FIG. 19B. Effect of various fatty acids in the inhibition (concentration of protein) of cyclooxygenase-2 (immunoblot of COX-2). […] Cell cultures (U937 differentiated monocytes) were treated with the fatty acids of the invention (250 μM, 6 hours).
as §1

[4] = test system: SF767 human brain cancer cells; assay: Tumour volume in nude mice infected with SF767 human brain cancer cells; type: in vivo; conditions: 600 mg/kg daily for 50 days; for volume of tumours (percent compared to control): p<0.001 vs control
Experimental: FIG. 6A. Effect of different salts of OHOD on human lung cancer in an animal cancer model. The volume of tumours in nude mice infected with SF767 human brain cancer cells (expressed as a percent compared to control) receiving various treatments. The animals received a vehicle (water: Control), 600 mg/kg of OHOD in the form of free fatty acid (OHOD), 600 mg/kg of sodium salt of OHOD (Na-OHOD) or 600 mg/kg of ammonium salt of OHOD (NH3OHOD) daily for 50 days.
FIG. 6B. Effect of different salts of OHOD on human lung cancer in an animal cancer model. The effect of different doses of sodium salt of OHOD (Na-OHOD) are shown on tumour volumes in mice infected with SF767 cells and treated with vehicle (control, 0 mg/kg), 100 mg/kg (100), 200 mg/kg (200), 400 mg/kg (400) and 600 mg/kg (600) for 50 days. * p<0.05; ***p<0.001.
One important characteristic of the molecules covered in the present invention is that they can form various types of salts. FIG. 6A and Table 5 show the therapeutic effects of various α-derivatives of cis-monounsaturated fatty acids and their salts. […] The specificity of this effect is determined by the relation between the dose and the effect these molecules have on the volume of human tumours implanted in animals (FIG. 6B).

inhibition of COX-1 activity (% of control) [3]	cellular concentration of COX-2 (% of control) (cyclooxygenase-2 (COX-2))	SMILES	tumour volume (prevention of tumour development) [1]	Final weight [2]	volume of tumours (percent compared to control) [4]	potency on tumour volume compared with the free fatty acid OHOD ([4]; p<0.05)
more significant effect	more significant effect	CCCCCCCC/C=C\CCCCCCC(OC)C(=O)O (stereo not drawn) [MOOD, α-Methoxy-cis-Δ9-octadecenoic]	more significant effect	263 ± 22* g	–	–
–	–	CCCCCCCC/C=C\CCCCCCC(O)C(=O)[O-].[Na+] (centres unmarked) [Na-OHOD]	–	–	significant reductions in the size of tumours	significantly more potent
more significant effect	more significant effect	CCCCCCCC/C=C\CCCCCCC(O)C(=O)O (stereo not drawn) [OHOD, α-Hydroxy-cis-Δ9-octadecenoic]	more significant effect	284 ± 13* g	significant reductions in the size of tumours	–
